The values that follow come from ChEMBL document CHEMBL3832025, “DailyMed|setid=d3417226-1f42-40cd-82ac-bc31ddf79b97 | OFLOXACIN - ofloxacin tablet, film coated|PD-Rx Pharmaceuticals, Inc”.

Holding throughout (type): ADME, organism-based
Series [1] is described as follows: (§1) Pharmcokinetic parameters for Ofloxacin following single oral dose administration of Ofloxacin to healthy male volunteers, body mass 70 to 80 kg. Set-up: dose 300 mg, dose 200 mg, dose 400 mg, route oral. The note with it: human, in vivo, dosed compound id 33, dosed compound name OFLOXACIN, regimen Single dose.
Series [2] relates to Homo sapiens. The series is described as §1. Further details: dose 300 mg, dose 200 mg, dose 400 mg, route oral. The note with it: in vivo, po, dosed compound id 33, dosed compound name OFLOXACIN, gender male, regimen Single dose, tissue Serum.
A short description of series [3]: (§2) Steady-state pharmacokinetic parameters for Ofloxacin following multiple oral and intravenous (IV) doses of Ofloxacin to healthy 70 to 80 kg male volunteers. Set-up: dose 200 mg, dose 400 mg, dose 300 mg, route oral, route iv. The conditions noted are these: human, in vivo, dosed compound id 33, dosed compound name OFLOXACIN, regimen Multiple dose; for AUC: gender male, tissue Serum.

Series [4] relates to Homo sapiens. The series is described as §2. Further details: dose 200 mg, dose 400 mg, dose 300 mg, route oral, route iv. The conditions noted are these: in vivo, dosed compound id 33, dosed compound name OFLOXACIN, gender male, regimen Multiple dose, tissue Serum.
[5] abbreviates: male, route oral, tissue Plasma.

Values joined by “and” are separate entries in the source; they are usually repeats but may differ in a detail not shown here. Equal entries are not always repeated.

By Cmax is commonly meant the highest concentration seen after dosing. Usually Tmax stands for the time at which the peak concentration occurs. Usually bioavailability stands for the share of a dose that reaches the circulation, judged against a reference dose that is usually intravenous. The AUC is the area under the concentration-time curve, a measure of exposure. `CC1COc2c(N3CCN(C)CC3)c(F)cc3c(=O)c(C(=O)O)cn1c23` (stereo not given) [OFLOXACIN] had a Cmax in series [1] (po, gender male, tissue Serum) of 1500 ng/mL. In addition, in series [1] (setting [5]), the Tmax was 1 to 2 h and the bioavailability was determined as 98%. Further, in the series on Homo sapiens [2], the “AUC(0 to inf)” value is 14100 ng·h/mL and 21200 ng·h/mL and 31400 ng·h/mL; the highest concentration (Cmax) is 2400 ng/mL and 2900 ng/mL. Also, the exposure (AUC) in series [3] (read-out: AUC(0 to 12) ss) was 41200 ng·h/mL. In addition, in series [3] (read-out: AUC(0 to inf) ss), the area under the curve (AUC) was 61000 ng·h/mL. Moreover, in series [3] (male, route oral, tissue Plasma, read-out: t1/2 ss), the half-life was 4 to 5 h. Besides, the “AUC(0 to 12) ss” value in the series on Homo sapiens [4] (study dosing duration 60 minutes) amounted to 43500 ng·h/mL. Besides, the Cmax ss with Homo sapiens [4] (po) was 2200 ng/mL and 3600 ng/mL and 4600 ng/mL.
